Reference: PubChem BioAssay (NCI)
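Values below derive from 48-hour exposures of cells grown in 96-well plates, with endpoints linearly interpolated between the two concentrations bracketing the appropriate inhibition level. At the GI50, growth is halved. At the TGI there is no net growth.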

Experiments:
Experiment in all cases: NCI anticancer screen, dose series, 48 h
SF-539 CNS = tested on: SF-539 CNS
LOX IMVI melanoma = tested on: LOX IMVI melanoma
SN12C renal = tested on: SN12C renal
SK-MEL-28 melanoma = tested on: SK-MEL-28 melanoma
SW-620 colon = tested on: SW-620 colon
OVCAR-8 ovarian = tested on: OVCAR-8 ovarian
EKVX NSCLC = tested on: EKVX NSCLC
COLO 205 colon = tested on: COLO 205 colon
M14 melanoma = tested on: M14 melanoma
SNB-75 CNS = tested on: SNB-75 CNS
OVCAR-4 ovarian = tested on: OVCAR-4 ovarian
ACHN renal = tested on: ACHN renal
KM12 colon = tested on: KM12 colon
DU-145 prostate = tested on: DU-145 prostate
SF-295 CNS = tested on: SF-295 CNS
MCF7 breast = tested on: MCF7 breast
TK-10 renal = tested on: TK-10 renal
U251 CNS = tested on: U251 CNS
OVCAR-3 ovarian = tested on: OVCAR-3 ovarian
SR leukemia = tested on: SR leukemia
HCT-15 colon = tested on: HCT-15 colon
786-0 renal = tested on: 786-0 renal
RXF 393 renal = tested on: RXF 393 renal
PC-3 prostate = tested on: PC-3 prostate
MDA-MB-435 = tested on: MDA-MB-435
HS 578T breast = tested on: HS 578T breast
HL-60(TB) leukemia = tested on: HL-60(TB) leukemia
K-562 leukemia = tested on: K-562 leukemia
BT-549 breast = tested on: BT-549 breast
UACC-257 melanoma = tested on: UACC-257 melanoma
SF-268 CNS = tested on: SF-268 CNS
MDA-MB-231 breast = tested on: MDA-MB-231 breast
SK-MEL-2 melanoma = tested on: SK-MEL-2 melanoma
IGROV1 ovarian = tested on: IGROV1 ovarian
SNB-19 CNS = tested on: SNB-19 CNS
OVCAR-5 ovarian = tested on: OVCAR-5 ovarian
A549 NSCLC = tested on: A549 NSCLC
HT29 colon = tested on: HT29 colon
UACC-62 melanoma = tested on: UACC-62 melanoma
NCI-H522 lung = tested on: NCI-H522 lung
SK-MEL-5 melanoma = tested on: SK-MEL-5 melanoma
HCT-116 colon = tested on: HCT-116 colon
A498 renal = tested on: A498 renal
NCI-H460 lung = tested on: NCI-H460 lung
UO-31 renal = tested on: UO-31 renal
RPMI-8226 leukemia = tested on: RPMI-8226 leukemia
NCI-H226 lung = tested on: NCI-H226 lung
MOLT-4 leukemia = tested on: MOLT-4 leukemia
CAKI-1 renal = tested on: CAKI-1 renal
MALME-3M melanoma = tested on: MALME-3M melanoma
HCC-2998 colon = tested on: HCC-2998 colon
HOP-92 NSCLC = tested on: HOP-92 NSCLC
CCRF-CEM leukemia = tested on: CCRF-CEM leukemia
SK-OV-3 ovarian = tested on: SK-OV-3 ovarian
HOP-62 NSCLC = tested on: HOP-62 NSCLC
NCI/ADR-RES ovarian = tested on: NCI/ADR-RES ovarian
NCI-H23 lung = tested on: NCI-H23 lung

CCCN1C(=O)/C(=C/c2cccc(O)c2)SC1=Nc1ccc(OC)cc1
GI50 (SF-539 CNS): 8.25 µM | TGI (SF-539 CNS): 15.7 µM | GI50 (LOX IMVI melanoma): 7.9 µM | TGI (LOX IMVI melanoma): 15.2 µM | GI50 (SN12C renal): 9.17 µM | TGI (SN12C renal): 17.5 µM | GI50 (SK-MEL-28 melanoma): 10.2 µM | TGI (SK-MEL-28 melanoma): 20.2 µM | GI50 (SW-620 colon): 9.78 µM | TGI (SW-620 colon): 17.3 µM | GI50 (OVCAR-8 ovarian): 10.7 µM | TGI (OVCAR-8 ovarian): 22.2 µM | GI50 (EKVX NSCLC): 9.5 µM | TGI (EKVX NSCLC): 17.2 µM | GI50 (COLO 205 colon): 11.1 µM | TGI (COLO 205 colon): 25.2 µM | GI50 (M14 melanoma): 12.9 µM | TGI (M14 melanoma): 21.3 µM | GI50 (SNB-75 CNS): 11.7 µM | TGI (SNB-75 CNS): 22.8 µM | GI50 (OVCAR-4 ovarian): 8.18 µM | TGI (OVCAR-4 ovarian): 18.8 µM | GI50 (ACHN renal): 8.08 µM | TGI (ACHN renal): 15.3 µM | GI50 (KM12 colon): 6.77 µM | TGI (KM12 colon): 16.5 µM | GI50 (DU-145 prostate): 7.93 µM | TGI (DU-145 prostate): 15.3 µM | GI50 (SF-295 CNS): 11.5 µM | TGI (SF-295 CNS): 23.3 µM | GI50 (MCF7 breast): 10.9 µM | TGI (MCF7 breast): 29.2 µM | GI50 (TK-10 renal): 9.62 µM | TGI (TK-10 renal): 19.5 µM | GI50 (U251 CNS): 7.87 µM | TGI (U251 CNS): 14.6 µM | GI50 (OVCAR-3 ovarian): 10.2 µM | TGI (OVCAR-3 ovarian): 21.1 µM | GI50 (SR leukemia): 6.04 µM | TGI (SR leukemia): > 50 µM | GI50 (HCT-15 colon): 7.76 µM | TGI (HCT-15 colon): 16.2 µM | GI50 (786-0 renal): 8.63 µM | TGI (786-0 renal): 16.4 µM | GI50 (RXF 393 renal): 9.3 µM | TGI (RXF 393 renal): 19.3 µM | GI50 (PC-3 prostate): 6.59 µM | TGI (PC-3 prostate): 13.2 µM | GI50 (MDA-MB-435): 10.8 µM | TGI (MDA-MB-435): 22 µM | GI50 (HS 578T breast): 16.5 µM | TGI (HS 578T breast): 34.1 µM | GI50 (HL-60(TB) leukemia): 4.09 µM | TGI (HL-60(TB) leukemia): > 50 µM | GI50 (K-562 leukemia): 2800 nM | TGI (K-562 leukemia): 22.3 µM | GI50 (BT-549 breast): 8.08 µM | TGI (BT-549 breast): 15.6 µM | GI50 (UACC-257 melanoma): 9.48 µM | TGI (UACC-257 melanoma): 17.1 µM | GI50 (SF-268 CNS): 9.65 µM | TGI (SF-268 CNS): 20.8 µM | GI50 (MDA-MB-231 breast): 7.86 µM | TGI (MDA-MB-231 breast): 16 µM | GI50 (SK-MEL-2 melanoma): 31.9 µM | TGI (SK-MEL-2 melanoma): > 50 µM | GI50 (IGROV1 ovarian): 29.5 µM | TGI (IGROV1 ovarian): > 50 µM | GI50 (SNB-19 CNS): 9.5 µM | TGI (SNB-19 CNS): 19.3 µM | GI50 (OVCAR-5 ovarian): 7.94 µM | TGI (OVCAR-5 ovarian): 14.8 µM | GI50 (A549 NSCLC): 9.11 µM | TGI (A549 NSCLC): 18.3 µM | GI50 (HT29 colon): 8.98 µM | TGI (HT29 colon): 19.7 µM | GI50 (UACC-62 melanoma): 10.3 µM | TGI (UACC-62 melanoma): 18.1 µM | GI50 (NCI-H522 lung): 23.4 µM | TGI (NCI-H522 lung): > 50 µM | GI50 (SK-MEL-5 melanoma): 7.28 µM | TGI (SK-MEL-5 melanoma): 15.1 µM | GI50 (HCT-116 colon): 7.35 µM | TGI (HCT-116 colon): 13.9 µM | GI50 (A498 renal): 8.81 µM | TGI (A498 renal): 16.5 µM | GI50 (NCI-H460 lung): 13.5 µM | TGI (NCI-H460 lung): > 50 µM | GI50 (UO-31 renal): 13.5 µM | TGI (UO-31 renal): > 50 µM | GI50 (RPMI-8226 leukemia): 5.61 µM | TGI (RPMI-8226 leukemia): 15.7 µM | GI50 (NCI-H226 lung): 13.3 µM | TGI (NCI-H226 lung): 27.6 µM | GI50 (MOLT-4 leukemia): 4.7 µM | TGI (MOLT-4 leukemia): > 50 µM | GI50 (CAKI-1 renal): 9.86 µM | TGI (CAKI-1 renal): 20.5 µM

O=S(=O)(O)c1ccc(N=Nc2ccc(N=Nc3c(O)ccc4ccccc34)c(S(=O)(=O)O)c2)cc1
TGI (SF-539 CNS): > 100 µM | TGI (MALME-3M melanoma): > 100 µM | TGI (SK-MEL-28 melanoma): > 100 µM | TGI (SW-620 colon): > 100 µM | TGI (OVCAR-8 ovarian): > 100 µM | TGI (EKVX NSCLC): > 100 µM | TGI (COLO 205 colon): > 100 µM | TGI (M14 melanoma): > 100 µM | TGI (HCC-2998 colon): > 100 µM | TGI (SNB-75 CNS): > 100 µM | TGI (ACHN renal): > 100 µM | TGI (KM12 colon): > 100 µM | TGI (HOP-92 NSCLC): > 100 µM | TGI (SF-295 CNS): > 100 µM | TGI (MCF7 breast): > 100 µM | TGI (CCRF-CEM leukemia): > 100 µM | TGI (TK-10 renal): > 100 µM | TGI (U251 CNS): > 100 µM | TGI (OVCAR-3 ovarian): > 100 µM | TGI (SR leukemia): > 100 µM | TGI (HCT-15 colon): > 100 µM | TGI (786-0 renal): > 100 µM | TGI (RXF 393 renal): > 100 µM | TGI (PC-3 prostate): > 100 µM | TGI (SK-OV-3 ovarian): > 100 µM | TGI (MDA-MB-435): > 100 µM | TGI (HS 578T breast): > 100 µM | TGI (HL-60(TB) leukemia): > 100 µM | TGI (K-562 leukemia): > 100 µM | TGI (BT-549 breast): > 100 µM | TGI (UACC-257 melanoma): > 100 µM | TGI (SF-268 CNS): > 100 µM | TGI (MDA-MB-231 breast): > 100 µM | TGI (SK-MEL-2 melanoma): > 100 µM | TGI (IGROV1 ovarian): > 100 µM | TGI (SNB-19 CNS): > 100 µM | TGI (OVCAR-5 ovarian): > 100 µM | TGI (HOP-62 NSCLC): > 100 µM | TGI (A549 NSCLC): > 100 µM | TGI (HT29 colon): > 100 µM | TGI (NCI/ADR-RES ovarian): > 100 µM | TGI (UACC-62 melanoma): > 100 µM | TGI (NCI-H522 lung): > 100 µM | TGI (SK-MEL-5 melanoma): > 100 µM | TGI (NCI-H23 lung): > 100 µM | TGI (HCT-116 colon): > 100 µM | TGI (NCI-H460 lung): > 100 µM | TGI (UO-31 renal): > 100 µM | TGI (RPMI-8226 leukemia): > 100 µM | TGI (NCI-H226 lung): > 100 µM | TGI (MOLT-4 leukemia): > 100 µM | TGI (CAKI-1 renal): > 100 µM
